What is called EC50 is the midpoint of the concentration-response curve. For orientation: IC50 means the concentration that inhibits the measured activity by half. A lower IC50 goes with greater potency.

For the test, the system named is CEM cells HIV-1 protection, formazan growth assay. Kind of test: NCI AIDS Antiviral Assay. The note with it: for IC50: measured here: growth of uninfected CEM cells. A digest of the protocol: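 Steps: treat uninfected and HIV-1-infected human CEM cells at five drug levels; quantify growth by soluble formazan; retest any compound reaching 50% protection; classify actives from the retest.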

Calls of active or inactive are those of the source.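 The calls were made as follows: active = compounds giving half or more protection of infected cells from virus-caused growth loss, again on retest; inactive = the rest.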

In the case of `OC(c1cc(C(O)(C(F)(F)F)C(F)(F)F)ncn1)(C(F)(F)F)C(F)(F)F`, the EC50 is greater than 200 µM and the IC50 was determined as 166 µM.
With `C=C1C(=O)O[C@H]2[C@H](OC(C)=O)[C@@H](C)CCC/C(C)=C/CC[C@@]3(C)O[C@@H]3C[C@@H]12`, the EC50 was greater than 126 µM and the IC50 was 5.62 µM.
In the case of `CN1CCc2c(sc(N)c2C#N)C1`, the outcome was inactive.
Same read-out and setting: in the case of `CCOc1ccccc1C1N2CCN(CC2)C(c2ccccc2OCC)N2CCN1CC2` (stereo unspecified) it was “inactive”.
Consider `CC1(O)CC2C(CC1SCCO)C2(C)C` (stereo unspecified), for which the EC50 is greater than 1070 µM and the IC50 stood at 631 µM.
Regarding `O=C(O)c1cc(CNc2ccc(/C=C/c3ccc(NCc4ccc(O)c(C(=O)O)c4)cc3S(=O)(=O)O)c(S(=O)(=O)O)c2)ccc1O`, the EC50 is 102 µM and the IC50 came to 263 µM.
`OCC1OC(NC(=S)NCSCCC(F)(F)C(F)(F)C(F)(F)C(F)(F)C(F)(F)C(F)(F)F)C(O)C(O)C1O` (stereo unspecified): the EC50 was greater than 200 µM and the IC50 is 7.24 µM.
Take `CN(C)C1C(=O)C(C(=O)NC[N+]23CCO[B-]2(c2ccc(Cl)cc2)OCC3)=C(O)C2(O)C(=O)C3=C(O)c4c(O)cccc4C(C)(O)C3CC12` (stereo unspecified): the EC50 was greater than 27.5 µM and the IC50 is greater than 27.5 µM.
Regarding `COc1ccc(-c2nc(-c3cnccn3)n(C/C=C/c3ccccc3)n2)cc1`, the EC50 was 64.6 µM and the IC50 is greater than 200 µM.
For `CCCCCCCCP(=O)(O)OP(=O)(O)OCC1OC(n2ccc(N)nc2=O)C(O)C1O` (stereo unspecified), in that order: greater than 200 µM and greater than 200 µM.
In the case of `Cc1nc2ccccc2c(=O)n1NC(=O)c1ccc(CS)cc1`, the result was inactive.
For the compound `COc1ccc2c(c1)[n+]([O-])c(/C(C)=N/NC(N)=S)c(C)[n+]2[O-]`, the EC50 was greater than 209 µM and the IC50 was 102 µM.
For `CC(C)(C)n1c(=O)[nH]n(C2NN=Cc3cccc4cccc2c34)c1=O` (stereo unspecified), in that order: greater than 200 µM and 24 µM.
Take `O=C1c2c(O)cc(O)cc2O[C@@]12c1c(cc(O)c3c1O[C@H](c1ccc(O)cc1)[C@@H](O)C3)O[C@@H]2c1ccc(O)cc1`: the EC50 was 2.57 µM and the IC50 came out at 50.1 µM.
On to `Clc1ccc(-c2c(C3=NCCN3)nnn2-c2ccccc2)cc1`, for which the EC50 is greater than 214 µM and the IC50 turned out to be 174 µM.
The matching figures for `COc1cc2c(c(OC)c1OC)C1=NNC(=O)C1(C)CC2` (stereo unspecified): greater than 617 µM and 479 µM.
In the case of `CC(=O)Nc1ccc(N2C(=O)/C(=C\c3cccc(Oc4ccccc4)c3)SC2c2ccccc2)cc1` (stereo unspecified), the EC50 is greater than 200 µM and the IC50 was determined as 36.3 µM.
`CCOC(=O)C1=C(C)N(NC(N)=O)C(C)(O)C12CCOC2=O` (stereo unspecified): the EC50 was greater than 794 µM and the IC50 was greater than 794 µM.
Regarding `COc1c(OC(C)=O)ccc(/C=C2\N=C(C)OC2=O)c1[N+](=O)[O-]`, the result was inactive.
Consider `COc1ccc(N2C(=O)C3c4[nH]c5ccc(OC)cc5c4C4CCC(C(C)(C)C)CC4C3C2=O)cc1` (stereo unspecified), for which the EC50 was greater than 14.8 µM and the IC50 was greater than 14.8 µM.
`CC(C)NC(=O)OCCN=c1c2ccccc2ccc2ccccc12`: the EC50 is greater than 200 µM and the IC50 turned out to be 93.3 µM.
For `COc1ccc2nc3ccccc3c(NCCCCCN(C)CCCl)c2c1`, the result was inactive.
Regarding `O=C(NCC(=O)N1CCCC1C(=O)OC(=O)C1CCCN1C(=O)CNC(=O)OCc1ccccc1)OCc1ccccc1` (stereo unspecified), the EC50 is greater than 38 µM and the IC50 came out at 30.2 µM.
For `COC(=O)C(Cc1c(C2Nc3ccccc3C2CC(NC(=O)CNC(C)=O)C(=O)OC)[nH]c2ccccc12)NC(=O)CNC(C)=O` (stereo unspecified), the EC50 was greater than 200 µM and the IC50 was greater than 200 µM.
`C=CCn1c(-c2ccc(-c3cs/c(=N\N=O)n3CC=C)cc2)cs/c1=N\N=O`: the EC50 is greater than 100 µM and the IC50 is greater than 100 µM.
In the case of `CC(C)(C)N=NC(C)(C)N=C=O`, the EC50 is greater than 251 µM and the IC50 was greater than 251 µM.
Take `CC(=O)OC1CCC2(C)C(C1)CC(OC(C)=O)C1C2CC(OC(C)=O)C2(C)C(C(C)CC(=O)C(=O)c3ccccc3)CCC12` (stereo unspecified): the EC50 was greater than 6.17 µM and the IC50 was 2.63 µM.
As to `CCCc1cc(=O)oc2c3c(c4c(c12)OC(C)(C)[C@@H](O)[C@H]4O)O[C@@H](C)[C@H](C)[C@@H]3O`, the EC50 is greater than 200 µM and the 50% inhibitory concentration (IC50) stood at 135 µM.
For `CCCCCCCCNC(=O)C1=C(C)NC(C)=C(C(=O)NCCCCCCCC)C1`, in that order: greater than 200 µM and 97.7 µM.
On to `CC(O)CC[P+](c1ccccc1)(c1ccccc1)c1ccccc1` (stereo unspecified), for which the EC50 is greater than 200 µM and the IC50 is 4.27 µM.
The matching figures for `C=CCOc1cc2c(c3oc(=O)cc(CCC)c13)[C@@H](O)[C@H](C)[C@@H](C)O2`: 6.61 µM and 13.5 µM.
The matching figures for `CC(=O)OC1C2CCC1C1C2N=NN1c1ccc([N+](=O)[O-])cc1` (stereo unspecified): greater than 151 µM and greater than 151 µM.
As to `Cc1nc(-n2nc(-c3ccccc3)cc2-c2ccccc2)sc1C(=O)/C=C/c1ccc(/C=C/C(=O)c2sc(-n3nc(-c4ccccc4)cc3-c3ccccc3)nc2C)cc1`, the EC50 was greater than 22.9 µM and the IC50 is greater than 22.9 µM.
Consider `N#Cc1c(-c2ccco2)cc(-c2ccccc2)[nH]c1=O`, for which the EC50 is greater than 20 µM and the IC50 is greater than 20 µM.
As to `O=C1NC(=O)C(=Cc2ccccc2)C(=O)N1`, the EC50 was greater than 166 µM and the IC50 is greater than 166 µM.
For `CCN(CC)CCOc1ccc(/C(C#N)=C/c2ccccc2OCCN(CC)CC)cc1`, the EC50 is greater than 200 µM and the IC50 is 2.63 µM.
In the case of `CC12Nc3ccccc3N1C(=O)c1ccccc12` (stereo unspecified), the EC50 is greater than 200 µM and the IC50 is 107 µM.
For `COC(=O)[C@@H]1C[C@]2(CC=O)c3ccccc3N(S(=O)(=O)c3ccccc3)[C@@H]2N1C(=O)OC`, in that order: greater than 100 µM and 70.8 µM.
For the compound `NC(=S)N/N=C\CC(O)(C(F)(F)F)C(F)(F)F`, the EC50 was greater than 200 µM and the IC50 is greater than 200 µM.
With `Cc1ccc(N(C(=O)CC(=O)NN)C(=O)c2ccccc2Cl)cc1`, the EC50 was greater than 269 µM and the IC50 was greater than 269 µM.
With `O=C1Nc2cc([N+](=O)[O-])ccc2C(=O)N2CCC[C@@H]12`, the EC50 was greater than 200 µM and the IC50 was greater than 200 µM.
Take `CC1=C(C(=O)CC(=O)C(=O)NC2C3CC4CC(C3)CC2C4)Sc2ccccc2N1` (stereo unspecified): the EC50 was greater than 9.12 µM and the IC50 was greater than 9.12 µM.
For `COc1ccccc1NC(=O)/C(=C/n1c(=S)[nH]c2ccccc21)C(C)=O`, the EC50 is greater than 200 µM and the IC50 was greater than 200 µM.
Turning to `CCOC(=O)C1=C(C)/C(=C\c2[nH]c(C)c(C(=O)OCC)c2C)N=C1C`, the EC50 is greater than 200 µM and the IC50 was greater than 200 µM.
As to `O=C1Oc2ccccc2C(=O)/C1=C/N1C(=O)N/C(=C\c2cccc(O)c2)C1=O`, the EC50 is greater than 200 µM and the IC50 amounted to 148 µM.
The matching figures for `[Ni+2].[O-]/C(=N\N=C/c1ccc(C(F)(F)F)cc1)c1ccncc1.[O-]/C(=N\N=C\c1ccc(C(F)(F)F)cc1)c1ccncc1`: greater than 100 µM and 16.6 µM.
The matching figures for `COc1ccc(N=Cc2c(O)ccc3c2oc2cc(Cl)c(O)c(Cl)c23)cc1`: greater than 200 µM and 2.95 µM.
For `NC(CSS(=O)(=O)O)=NCCCC1CCCCC1`, in that order: greater than 200 µM and 102 µM.

The values above are taken from PubChem BioAssay AID179 (DTP/NCI, 2004).
